Test results from PubChem BioAssay AID2060625 (Molecular Pharmacology Branch, DTP, NCI, 2025).

System: 186277-243-T-J2-PDC spheroids with HUVEC/MSC, viability
Test: Anticancer human tumor 186277-243-T-J2-PDC patient-derived colon adenocarcinoma cell line growth inhibition [CLK]
Settings: for IC50: curve of first compound; for viability, T/C: stronger effect = lower value
Method in brief: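 Patient-derived tumor cells grown as complex spheroids with HUVEC endothelial cells and mesenchymal stem cells, treated with drug combinations. Concentrations descend in half-log steps from near clinical Cmax, or from 10 microM if Cmax unknown.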

[1] = second compound 0.0316 µM, first compound 0.0316 µM
[2] = second compound 0.0316 µM, first compound 0.1 µM
[3] = second compound 0.0316 µM, first compound 0.316 µM
[4] = second compound 0.0316 µM, first compound 1 µM
[5] = second compound 0.0316 µM, first compound 3.16 µM
[6] = second compound 0.0316 µM, first compound 10 µM
[7] = second compound 0.1 µM, first compound 0.0316 µM
[8] = second compound 0.1 µM, first compound 0.1 µM
[9] = second compound 0.1 µM, first compound 0.316 µM
[10] = second compound 0.1 µM, first compound 1 µM
[11] = second compound 0.1 µM, first compound 3.16 µM
[12] = second compound 0.1 µM, first compound 10 µM
[13] = second compound 0.316 µM, first compound 0.0316 µM
[14] = second compound 0.316 µM, first compound 0.1 µM
[15] = second compound 0.316 µM, first compound 0.316 µM
[16] = second compound 0.316 µM, first compound 1 µM
[17] = second compound 0.316 µM, first compound 3.16 µM
[18] = second compound 0.316 µM, first compound 10 µM
[19] = second compound 1 µM, first compound 0.0316 µM
[20] = second compound 1 µM, first compound 0.1 µM
[21] = second compound 1 µM, first compound 0.316 µM
[22] = second compound 1 µM, first compound 1 µM
[23] = second compound 1 µM, first compound 3.16 µM
[24] = second compound 1 µM, first compound 10 µM
[25] = second compound 3.16 µM, first compound 0.0316 µM
[26] = second compound 3.16 µM, first compound 0.1 µM
[27] = second compound 3.16 µM, first compound 0.316 µM
[28] = second compound 3.16 µM, first compound 1 µM
[29] = second compound 3.16 µM, first compound 3.16 µM
[30] = second compound 3.16 µM, first compound 10 µM
[31] = second compound 10 µM, first compound 0.0316 µM
[32] = second compound 10 µM, first compound 0.1 µM
[33] = second compound 10 µM, first compound 0.316 µM
[34] = second compound 10 µM, first compound 1 µM
[35] = second compound 10 µM, first compound 3.16 µM
[36] = second compound 10 µM, first compound 10 µM
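Further: compound exposure lasted seven days before readout.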
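Wherever viability, T/C is given: 100% = DMSO vehicle control wells.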

CC(=O)O[C@H]1C(=O)[C@@]2(C)[C@H]([C@H](OC(=O)c3ccccc3)[C@]3(O)C[C@H](OC(=O)[C@H](O)[C@@H](NC(=O)c4ccccc4)c4ccccc4)C(C)=C1C3(C)C)[C@]1(OC(C)=O)CO[C@@H]1C[C@@H]2O + CNC(=O)c1ccc(Nc2nc(OC3CCCC3)c3c(-c4ccc5nc(C)oc5c4)c[nH]c3n2)c(OC)c1
IC50 (second compound 0.0316 µM): 260 nM | IC50 (second compound 0.1 µM): > 10000 nM | IC50 (second compound 0.316 µM): < 31.6 nM | IC50 (second compound 1 µM): < 31.6 nM | IC50 (second compound 3.16 µM): < 31.6 nM | IC50 (second compound 10 µM): < 31.6 nM | viability, T/C [1]: 73.2% | viability, T/C [2]: 73.2% | viability, T/C [3]: 45.2% | viability, T/C [4]: 26.3% | viability, T/C [5]: 27.7% | viability, T/C [6]: 59.1% | viability, T/C [7]: 64.4% | viability, T/C [8]: 85.1% | viability, T/C [9]: 128% | viability, T/C [10]: 142% | viability, T/C [11]: 156% | viability, T/C [12]: 166% | viability, T/C [13]: 40.4% | viability, T/C [14]: 64% | viability, T/C [15]: 96% | viability, T/C [16]: 105% | viability, T/C [17]: 110% | viability, T/C [18]: 94.6% | viability, T/C [19]: 31.5% | viability, T/C [20]: 44.1% | viability, T/C [21]: 53.2% | viability, T/C [22]: 53.3% | viability, T/C [23]: 61% | viability, T/C [24]: 65.5% | viability, T/C [25]: 32.4% | viability, T/C [26]: 44.6% | viability, T/C [27]: 40.2% | viability, T/C [28]: 48.4% | viability, T/C [29]: 44.7% | viability, T/C [30]: 50% | viability, T/C [31]: 30.1% | viability, T/C [32]: 36.4% | viability, T/C [33]: 41% | viability, T/C [34]: 39.5% | viability, T/C [35]: 45.2% | viability, T/C [36]: 47.6%

CCc1c2c(nc3ccc(O)cc13)-c1cc3c(c(=O)n1C2)COC(=O)[C@]3(O)CC + CNC(=O)c1ccc(Nc2nc(OC3CCCC3)c3c(-c4ccc5nc(C)oc5c4)c[nH]c3n2)c(OC)c1
IC50 (second compound 0.0316 µM): 24.4 nM | IC50 (second compound 0.1 µM): 22.3 nM | IC50 (second compound 0.316 µM): 11.5 nM | IC50 (second compound 1 µM): < 3.16 nM | IC50 (second compound 3.16 µM): < 3.16 nM | IC50 (second compound 10 µM): < 3.16 nM | viability, T/C (second compound 0.0316 µM, first compound 0.00316 µM): 101% | viability, T/C (second compound 0.0316 µM, first compound 0.01 µM): 73.3% | viability, T/C [1]: 43.3% | viability, T/C [2]: 23.4% | viability, T/C [3]: 16.7% | viability, T/C [4]: 11.2% | viability, T/C (second compound 0.1 µM, first compound 0.00316 µM): 77.8% | viability, T/C (second compound 0.1 µM, first compound 0.01 µM): 71% | viability, T/C [7]: 40.5% | viability, T/C [8]: 19.2% | viability, T/C [9]: 16.6% | viability, T/C [10]: 10.3% | viability, T/C (second compound 0.316 µM, first compound 0.00316 µM): 64.4% | viability, T/C (second compound 0.316 µM, first compound 0.01 µM): 54% | viability, T/C [13]: 21% | viability, T/C [14]: 12.9% | viability, T/C [15]: 12.4% | viability, T/C [16]: 7.31% | viability, T/C (second compound 1 µM, first compound 0.00316 µM): 47.3% | viability, T/C (second compound 1 µM, first compound 0.01 µM): 31.8% | viability, T/C [19]: 12.8% | viability, T/C [20]: 8.64% | viability, T/C [21]: 5.93% | viability, T/C [22]: 4% | viability, T/C (second compound 3.16 µM, first compound 0.00316 µM): 43.4% | viability, T/C (second compound 3.16 µM, first compound 0.01 µM): 23.8% | viability, T/C [25]: 8.87% | viability, T/C [26]: 10.9% | viability, T/C [27]: 6.99% | viability, T/C [28]: 3.82% | viability, T/C (second compound 10 µM, first compound 0.00316 µM): 40.6% | viability, T/C (second compound 10 µM, first compound 0.01 µM): 24% | viability, T/C [31]: 10.3% | viability, T/C [32]: 6.46% | viability, T/C [33]: 7.11% | viability, T/C [34]: 4.09%

COc1cccc2c1C(=O)c1c(O)c3c(c(O)c1C2=O)CC(O)(C(=O)CO)CC3OC1CC(N)C(O)C(C)O1 (stereo not given) + CNC(=O)c1ccc(Nc2nc(OC3CCCC3)c3c(-c4ccc5nc(C)oc5c4)c[nH]c3n2)c(OC)c1
IC50 (second compound 0.0316 µM): 161 nM | IC50 (second compound 0.1 µM): 138 nM | IC50 (second compound 0.316 µM): 66 nM | IC50 (second compound 1 µM): < 31.6 nM | IC50 (second compound 3.16 µM): < 31.6 nM | IC50 (second compound 10 µM): < 31.6 nM | viability, T/C [1]: 112% | viability, T/C [2]: 73.5% | viability, T/C [3]: 17.3% | viability, T/C [4]: 0.3% | viability, T/C [5]: 3.88% | viability, T/C [6]: 1.97% | viability, T/C [7]: 72.2% | viability, T/C [8]: 64.4% | viability, T/C [9]: 13% | viability, T/C [10]: 0.2% | viability, T/C [11]: 1.92% | viability, T/C [12]: 4.82% | viability, T/C [13]: 52.4% | viability, T/C [14]: 48.7% | viability, T/C [15]: 10.6% | viability, T/C [16]: 1.25% | viability, T/C [17]: 2.88% | viability, T/C [18]: 1.07% | viability, T/C [19]: 40.7% | viability, T/C [20]: 27.5% | viability, T/C [21]: 3.75% | viability, T/C [22]: 2.42% | viability, T/C [23]: 6.62% | viability, T/C [24]: 3.37% | viability, T/C [25]: 34.2% | viability, T/C [26]: 19.9% | viability, T/C [27]: 3.14% | viability, T/C [28]: 2.25% | viability, T/C [29]: 1.39% | viability, T/C [30]: 1.97% | viability, T/C [31]: 34.8% | viability, T/C [32]: 16.9% | viability, T/C [33]: 4.4% | viability, T/C [34]: 2.28% | viability, T/C [35]: 3.08% | viability, T/C [36]: 3.22%

Nc1ccn(C2OC(CO)C(O)C2(F)F)c(=O)n1 (stereo not given) + CNC(=O)c1ccc(Nc2nc(OC3CCCC3)c3c(-c4ccc5nc(C)oc5c4)c[nH]c3n2)c(OC)c1
IC50 (second compound 0.0316 µM): < 31.6 nM | IC50 (second compound 0.1 µM): < 31.6 nM | IC50 (second compound 0.316 µM): < 31.6 nM | IC50 (second compound 1 µM): < 31.6 nM | IC50 (second compound 3.16 µM): < 31.6 nM | IC50 (second compound 10 µM): < 31.6 nM | viability, T/C [1]: 13.3% | viability, T/C [2]: 10.8% | viability, T/C [3]: 12% | viability, T/C [4]: 14.9% | viability, T/C [5]: 14.7% | viability, T/C [6]: 13.9% | viability, T/C [7]: 15.8% | viability, T/C [8]: 13.3% | viability, T/C [9]: 13.3% | viability, T/C [10]: 13.3% | viability, T/C [11]: 14.8% | viability, T/C [12]: 12.4% | viability, T/C [13]: 9.79% | viability, T/C [14]: 9.9% | viability, T/C [15]: 9.39% | viability, T/C [16]: 11.3% | viability, T/C [17]: 9.88% | viability, T/C [18]: 8.65% | viability, T/C [19]: 9.1% | viability, T/C [20]: 8.33% | viability, T/C [21]: 8.5% | viability, T/C [22]: 8.25% | viability, T/C [23]: 5.96% | viability, T/C [24]: 6.34% | viability, T/C [25]: 8.6% | viability, T/C [26]: 7.49% | viability, T/C [27]: 7.26% | viability, T/C [28]: 8.76% | viability, T/C [29]: 6.3% | viability, T/C [30]: 6.38% | viability, T/C [31]: 9.98% | viability, T/C [32]: 9.04% | viability, T/C [33]: 6.83% | viability, T/C [34]: 7.74% | viability, T/C [35]: 6.77% | viability, T/C [36]: 5.84%

O=c1[nH]cc(F)c(=O)[nH]1 + CNC(=O)c1ccc(Nc2nc(OC3CCCC3)c3c(-c4ccc5nc(C)oc5c4)c[nH]c3n2)c(OC)c1
IC50 (second compound 0.0316 µM): > 10000 nM | IC50 (second compound 0.1 µM): 5330 nM | IC50 (second compound 0.316 µM): < 31.6 nM | IC50 (second compound 1 µM): < 31.6 nM | IC50 (second compound 3.16 µM): < 31.6 nM | IC50 (second compound 10 µM): < 31.6 nM | viability, T/C [1]: 97.9% | viability, T/C [2]: 95.6% | viability, T/C [3]: 109% | viability, T/C [4]: 102% | viability, T/C [5]: 86.2% | viability, T/C [6]: 56.8% | viability, T/C [7]: 70.6% | viability, T/C [8]: 66.2% | viability, T/C [9]: 64.2% | viability, T/C [10]: 61.5% | viability, T/C [11]: 58.1% | viability, T/C [12]: 42.1% | viability, T/C [13]: 43.7% | viability, T/C [14]: 43.6% | viability, T/C [15]: 39.4% | viability, T/C [16]: 41% | viability, T/C [17]: 37.3% | viability, T/C [18]: 25.6% | viability, T/C [19]: 30.9% | viability, T/C [20]: 29.4% | viability, T/C [21]: 28.1% | viability, T/C [22]: 28.6% | viability, T/C [23]: 24.9% | viability, T/C [24]: 15% | viability, T/C [25]: 27.6% | viability, T/C [26]: 26.9% | viability, T/C [27]: 24.8% | viability, T/C [28]: 28.3% | viability, T/C [29]: 24.4% | viability, T/C [30]: 12.1% | viability, T/C [31]: 30.1% | viability, T/C [32]: 30.3% | viability, T/C [33]: 29.4% | viability, T/C [34]: 29.2% | viability, T/C [35]: 27.6% | viability, T/C [36]: 12%
